# From patent US7951232B2, “Surface coating compositions and methods” (Elevance Renewable Sciences, Inc., priority 2006, dated 2011)
# Key:
# Type in all cases: cell-based
# [1] = tested on: Aureobasidium pullulans (ATCC 12536); assay: MIC on Potato Dextrose Agar surface; settings: PDA agar, 25-30° C., least concentration that completely inhibited growth
# Procedure: The efficacy of antimicrobial compositions in accordance with aspects of the invention against the following organisms was determined as follows. The following organisms were incubated in the presence of varying concentrations of 9-decenoic acid (9-DA) on an agar surface: Aspergillus parasiticus (ATCC 56857), Trichoderma virens (ATCC 9645), Aureobasidium pullulans (ATCC 12536), Aspergillus flavus (ATCC 96045), Cladosporium cladosporiodes (ATCC 16022), Aspergillus flavus (ATCC 5917), Aspergillus oryzae (ATCC 10124), Aspergillus parasiticus (ATCC 13539), Ulocladium atrum (ATCC 52426), Candida albicans (ATCC 11651), Alternaria alternata (ATCC 52170), Stachybotrys chartarum (ATCC 16026), Aspergillus niger (ATCC 11414).
# Fungal spores were hydrated in 0.1% Tween 80 and then plated onto Potato Dextrose Agar (PDA) (Difco # 213400; Becton, Dickinson and Company, Sparks, Md.) and incubated at 25-30° C. for six (6) days. The spores were washed from the surface with 5 ml of 0.1% Tween 80 and enumerated.
# PDA plates were prepared according to the manufacturer's instructions through sterilization. The agar was tempered to approximately 50° C. and was filter sterilized. […]
# The agar plates were inoculated with the spore solution to achieve 10^2 spores/plate. […] The percent coverage of growth on the agar surface was recorded at each sample point.
# [2] = tested on: Cladosporium cladosporiodes ATCC 16022; assay: Dry film preservative test, growth on PDA agar surface
# Procedure: (§1) The efficacy of 9-decenoic acid and the methyl ester of 9-decenoic acid as a dry film preservative was determined through the incubation of Trichoderma virens ATCC 9645, Cladosporium cladosporiodes ATCC 16022 and Aureobasidium pullulans ATCC 12536 in the presence of varying concentrations of 9-decenoic acid or the methyl ester of 9-decenoic acid on an agar surface.
# (§2) Fungal spores were hydrated overnight in 0.1% Tween 80 and then plated on Potato Dextrose Agar (PDA) and incubated at 25-30° C. for 6 days. The spores were washed from the surface with 5 mls of 0.1% Tween 80 and enumerated.
# (§3) PDA plates with prepared according to the manufactures instructions through sterilization. The agar was tempered to approximately 50° C. and filter sterilized 9-decenoic acid was added to achieve concentrations of 0.1, 0.5 and 1.0% in the agar. Additionally, one concentration of the methyl ester of 9-decenoic acid (0.5%) was also prepared. The agar was thoroughly mixed and poured into sterile petri plates and allowed to solidify.
# (§4) The agar plates were inoculated with the spore solution to achieve 10^2 spores/plate. The plates were incubated at 25-30° C. in Ziploc bags with a wet paper towel to keep the moisture level high. The plates were examined for growth after 4, 7, 16, 24 and 31 days. The percent coverage of growth on the agar surface was recorded at each sample point.
# [3] = tested on: Aureobasidium pullulans ATCC 12536; assay: as above
# Procedure: as §1, §2, §3, §4
# [4] = tested on: Trichoderma virens ATCC 9645; assay: as above
# Procedure: as §1, §2, §3, §4
compound,measurement,setting,value
C=CCCCCCCCC(=O)O [9-decenoic acid],MIC,[1],0.01%
same,Percentage coverage of agar surface,"[2]; 0.1% in PDA agar, 4 days",0%
same,Percentage coverage of agar surface,"[2]; 0.1% in PDA agar, 7 days",0%
same,Percentage coverage of agar surface,"[2]; 0.1% in PDA agar, 16 days",0%
same,Percentage coverage of agar surface,"[2]; 0.1% in PDA agar, 24 days",0%
same,Percentage coverage of agar surface,"[2]; 0.1% in PDA agar, 31 days",0%
same,Percentage coverage of agar surface,"[2]; 0.5% in PDA agar, 4 days",0%
same,Percentage coverage of agar surface,"[2]; 0.5% in PDA agar, 7 days",0%
same,Percentage coverage of agar surface,"[2]; 0.5% in PDA agar, 16 days",0%
same,Percentage coverage of agar surface,"[2]; 0.5% in PDA agar, 24 days",0%
same,Percentage coverage of agar surface,"[2]; 0.5% in PDA agar, 31 days",0%
same,Percentage coverage of agar surface,"[2]; 1.0% in PDA agar, 4 days",0%
same,Percentage coverage of agar surface,"[2]; 1.0% in PDA agar, 7 days",0%
same,Percentage coverage of agar surface,"[2]; 1.0% in PDA agar, 16 days",0%
same,Percentage coverage of agar surface,"[2]; 1.0% in PDA agar, 24 days",0%
same,Percentage coverage of agar surface,"[2]; 1.0% in PDA agar, 31 days",0%
same,effectiveness as dry film preservative,[2]; at 0.1% for up to 31 days,effective
same,Percentage coverage of agar surface,"[3]; 0.1% in PDA agar, 4 days",0%
same,Percentage coverage of agar surface,"[3]; 0.1% in PDA agar, 7 days",0%
same,Percentage coverage of agar surface,"[3]; 0.1% in PDA agar, 16 days",0%
same,Percentage coverage of agar surface,"[3]; 0.1% in PDA agar, 24 days",0%
same,Percentage coverage of agar surface,"[3]; 0.1% in PDA agar, 31 days",0%
same,Percentage coverage of agar surface,"[3]; 0.5% in PDA agar, 4 days",0%
same,Percentage coverage of agar surface,"[3]; 0.5% in PDA agar, 7 days",0%
same,Percentage coverage of agar surface,"[3]; 0.5% in PDA agar, 16 days",0%
same,Percentage coverage of agar surface,"[3]; 0.5% in PDA agar, 24 days",0%
same,Percentage coverage of agar surface,"[3]; 0.5% in PDA agar, 31 days",0%
same,Percentage coverage of agar surface,"[3]; 1.0% in PDA agar, 4 days",0%
same,Percentage coverage of agar surface,"[3]; 1.0% in PDA agar, 7 days",0%
same,Percentage coverage of agar surface,"[3]; 1.0% in PDA agar, 16 days",0%
same,Percentage coverage of agar surface,"[3]; 1.0% in PDA agar, 24 days",0%
same,Percentage coverage of agar surface,"[3]; 1.0% in PDA agar, 31 days",0%
same,effectiveness as dry film preservative,[3]; at 0.1% for up to 31 days,effective
same,Percentage coverage of agar surface,"[4]; 0.1% in PDA agar, 4 days",0%
same,Percentage coverage of agar surface,"[4]; 0.1% in PDA agar, 7 days",0%
same,Percentage coverage of agar surface,"[4]; 0.1% in PDA agar, 16 days",0%
same,Percentage coverage of agar surface,"[4]; 0.1% in PDA agar, 24 days",0%
same,Percentage coverage of agar surface,"[4]; 0.1% in PDA agar, 31 days",0%
same,Percentage coverage of agar surface,"[4]; 0.5% in PDA agar, 4 days",0%
same,Percentage coverage of agar surface,"[4]; 0.5% in PDA agar, 7 days",0%
same,Percentage coverage of agar surface,"[4]; 0.5% in PDA agar, 16 days",0%
same,Percentage coverage of agar surface,"[4]; 0.5% in PDA agar, 24 days",0%
same,Percentage coverage of agar surface,"[4]; 0.5% in PDA agar, 31 days",0%
same,Percentage coverage of agar surface,"[4]; 1.0% in PDA agar, 4 days",0%
same,Percentage coverage of agar surface,"[4]; 1.0% in PDA agar, 7 days",0%
same,Percentage coverage of agar surface,"[4]; 1.0% in PDA agar, 16 days",0%
same,Percentage coverage of agar surface,"[4]; 1.0% in PDA agar, 24 days",0%
same,Percentage coverage of agar surface,"[4]; 1.0% in PDA agar, 31 days",0%
same,effectiveness as dry film preservative,[4]; at 0.1% for up to 31 days,effective
